Measurements: the supplement of paper PMC11061612

Columns and labels:
[1] = compound: C=CCn1c(=O)c2cnc(Nc3ccc(N4CCN(C)CC4)cc3)nc2n1-c1cccc(C(C)(C)O)n1 [AZD1775]; details: max 3 µM
How it was run: (§1)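 After 24 hours at 37°C and 5% CO2 in 1536-well plates holding 7.5 μl of DMEM/F12 or RPMI with 10% FBS, cancer cell lines were dosed for 72 hours, with final DMSO typically 0.2%. Viability came from CellTiter-Glo 2.0 luminescence, scaled between the means of blank wells and DMSO wells. A non-linear mixed effects model fitted a two-parameter logistic curve to each dose response to give the single-agent IC50.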

[2] = compound: COc1cc(Nc2ncc3c(n2)-c2ccc(Cl)cc2C(c2c(F)cccc2OC)=NC3)ccc1C(=O)O [Alisertib]; details: max 10 µM
How it was run: as §1

[3] = compound: CC(=O)c1c(C)c2cnc(Nc3ccc(N4CCNCC4)cn3)nc2n(C2CCCC2)c1=O [Palbociclib]; details: max 10 µM
How it was run: as §1

[4] = compound: CC(C)n1c(=O)n(C)c2cnc3cc(F)c(-c4ccc(OCCCN5CCCCC5)nc4)cc3c21 [AZD1390]; details: max 0.3 µM
How it was run: as §1

[5] = compound: COc1cccc(OCCCN)c1-c1cc(Nc2cnc(C#N)cn2)n[nH]1 [Prexasertib]; details: max 1 µM
How it was run: as §1

[6] = compound: CC1=C(C(=CC=C1)Cl)NC(=O)C2=CN=C(S2)NC3=CC(=NC(=N3)C)N4CCN(CC4)CCO [Dasatinib]; details: max 2 µM
How it was run: as §1

[7] = compound: CCc1c2c(nc3ccc(O)cc13)-c1cc3c(c(=O)n1C2)COC(=O)[C@]3(O)CC [SN-38]; details: max 0.3 µM
How it was run: as §1

[8] = compound: O=C(c1cc(Cc2n[nH]c(=O)c3ccccc23)ccc1F)N1CCN(C(=O)C2CC2)CC1 [Olaparib]
How it was run: as §1

[9] = compound: CC1=CN2[C@@H](C1)C=NC3=CC(=C(C=C3C2=O)OC)OCCCCCOC4=C(C=C5C(=C4)N=C[C@@H]6CC(=CN6C5=O)C)OC [SG3199]; details: max 0.001 µM
How it was run: as §1

[10] = compound: C1CN(CCC1(C(=O)N[C@@H](CCO)C2=CC=C(C=C2)Cl)N)C3=NC=NC4=C3C=CN4 [Capivasertib]
How it was run: as §1

[11] = compound: C[C@@H](Nc1cc(F)cc(F)c1)c1cc(C(=O)N(C)C)cc2c(=O)cc(N3CCOCC3)oc12 [AZD8186]; details: max 3 µM
How it was run: as §1

[12] = compound: C[C@@H](c1ccc2nccn2c1)n1nnc2ncc(-c3cnn(C)c3)nc21 [Savolitinib]; details: max 1 µM
How it was run: as §1

[13] = compound: CC(=O)Nc1cccc(-n2c(=O)n(C3CC3)c(=O)c3c(Nc4ccc(I)cc4F)n(C)c(=O)c(C)c32)c1 [Trametinib]; details: max 1 µM
How it was run: as §1

[14] = compound: CC1(C)CCC(CN2CCN(c3ccc(C(=O)NS(=O)(=O)c4ccc(NCC5CCOCC5)c([N+](=O)[O-])c4)c(Oc4cnc5[nH]ccc5c4)c3)CC2)=C(c2ccc(Cl)cc2)C1 [Venetoclax]; details: max 1 µM
How it was run: as §1

[15] = compound: CN(C)CCCOc1ccc(-c2ccc3ncc4c(c3c2)n(C2CCOCC2)c(=O)n4C)cn1 [AZD0156]; details: max 3 µM
How it was run: as §1

[16] = compound: C[C@@H](Oc1cc(-c2cnn(C3CCNCC3)c2)cnc1N)c1c(Cl)ccc(F)c1Cl [Crizotinib]; details: max 10 µM
How it was run: as §1

[17] = compound: C[C@@H]1COCCN1C2=NC(=NC(=C2)C3(CC3)[S@](=N)(=O)C)C4=C5C=CNC5=NC=C4 [AZD6738]; details: max 10 µM
How it was run: as §1

[18] = compound: COc1nnc2ccc(N3CCC(c4ccc(OCCN5CCN(C)C(=O)[C@H]5C)cc4)CC3)nn12 [AZD5153]; details: max 1 µM
How it was run: as §1

[19] = compound: COc1cccc2c1C(=O)c1c(O)c3c(c(O)c1C2=O)C[C@@](O)(C(=O)CO)C[C@@H]3O[C@H]1C[C@H](N)[C@H](O)[C@H](C)O1 [Doxorubicin]; details: max 1 µM
How it was run: as §1

[20] = compound: CCN(CCO)CCCOc1ccc2c(Nc3cc(CC(=O)Nc4cccc(F)c4)[nH]n3)ncnc2c1 [AZD2811]; details: max 1 µM
How it was run: as §1

[21] = compound: Cn1cnc2c(F)c(Nc3ccc(Br)cc3Cl)c(C(=O)NOCCO)cc21 [Selumetinib]; details: max 10 µM
How it was run: as §1

[22] = compound: Cc1cc2ncnn2cc1Nc1ncc2c(n1)n(C1CCOCC1)c(=O)n2C [AZD7648]; details: max 10 µM
How it was run: as §1

[23] = compound: COc1cc2ncnc(Nc3ccc(F)c(Cl)c3)c2cc1OCCCN1CCOCC1 [Gefitinib]; details: max 10 µM
How it was run: as §1

[24] = compound: CN(CC[C@H](CSC1=CC=CC=C1)NC2=C(C=C(C=C2)S(=O)(=O)NC(=O)C3=CC=C(C=C3)N4CCC(CC4)[C@H](C5=CC=CC=C5C6=CC=C(C=C6)Cl)O)S(=O)(=O)C(F)(F)F)CCO [AZD4320]; details: max 1 µM
How it was run: as §1

[25] = compound: Cc1c2c(nn1C)CSCc1cc(n(C)n1)CSc1cc(c3ccccc3c1)OCCCc1c(C(=O)O)n(C)c3c-2c(Cl)ccc13 [AZD5991]; details: max 1 µM
How it was run: as §1

[26] = compound: CS(=O)(=O)CCNCc1ccc(-c2ccc3ncnc(Nc4ccc(OCc5cccc(F)c5)c(Cl)c4)c3c2)o1 [Lapatinib]; details: max 10 µM
How it was run: as §1

[27] = compound: Cc1nc(-c2cn3c(n2)-c2ccc(-c4cnn(C(C)(C)C(N)=O)c4)cc2OCC3)n(C(C)C)n1 [Taselisib]; details: max 10 µM
How it was run: as §1

| Cell Line | IC50, cell viability 72 h [1] | IC50, cell viability 72 h [2] | IC50, cell viability 72 h [3] | IC50, cell viability 72 h [4] | IC50, cell viability 72 h [5] | IC50, cell viability 72 h [6] | IC50, cell viability 72 h [7] | IC50, cell viability 72 h ([8]; max 10 µM) | IC50, cell viability 72 h [9] | IC50, cell viability 72 h ([10]; max 10 µM) | IC50, cell viability 72 h [11] | IC50, cell viability 72 h [12] | IC50, cell viability 72 h [13] | IC50, cell viability 72 h [14] | IC50, cell viability 72 h [15] | IC50, cell viability 72 h [16] | IC50, cell viability 72 h [17] | IC50, cell viability 72 h [18] | IC50, cell viability 72 h [19] | IC50, cell viability 72 h [20] | IC50, cell viability 72 h [21] | IC50, cell viability 72 h [22] | IC50, cell viability 72 h [23] | IC50, cell viability 72 h [24] | IC50, cell viability 72 h [25] | IC50, cell viability 72 h [26] | IC50, cell viability 72 h [27] | IC50, cell viability 72 h ([8]; max 3 µM) | IC50, cell viability 72 h ([10]; max 3 µM) |
| --- | --- | --- | --- | --- | --- | --- | --- | --- | --- | --- | --- | --- | --- | --- | --- | --- | --- | --- | --- | --- | --- | --- | --- | --- | --- | --- | --- | --- | --- |
| 697 (B-Lymphoblastic Leukemia) | 0.149 µM | 0.0333 µM | 0.263 µM | > 0.3 µM | 0.0045 µM | 0.677 µM | 0.00334 µM | 1.41 µM | > 0.001 µM | 3.24 µM | > 3 µM | > 1 µM | 0.662 µM | 0.0143 µM | 2.07 µM | 1.1 µM | 0.336 µM | 0.0142 µM | 0.0173 µM | 0.0146 µM | > 10 µM | 9.41 µM | > 10 µM | 0.00675 µM | 0.0489 µM | 6.95 µM | 3.94 µM |  |  |
| BB49-HNC (Head and Neck Carcinoma) | 0.309 µM |  |  |  |  |  |  |  |  |  |  |  |  |  | > 3 µM |  |  |  |  |  |  |  |  |  |  |  |  | > 3 µM | 1.99 µM |
| C3A (Hepatocellular Carcinoma) | 2.48 µM | > 10 µM | > 10 µM | > 0.3 µM | 0.524 µM | > 2 µM | 0.143 µM | > 10 µM | > 0.001 µM | > 10 µM | > 3 µM | > 1 µM | 0.657 µM | > 1 µM | > 3 µM | > 10 µM | > 10 µM | > 1 µM | > 1 µM | > 1 µM | 7.96 µM | > 10 µM | > 10 µM | > 1 µM | > 1 µM | > 10 µM | > 10 µM |  |  |
| CAL-78 (Chondrosarcoma) | 0.898 µM | 1.78 µM | > 10 µM | > 0.3 µM | 0.226 µM | > 2 µM | 0.0541 µM | > 10 µM | > 0.001 µM | > 10 µM | > 3 µM | > 1 µM | > 1 µM | > 1 µM | > 3 µM | > 10 µM | > 10 µM | > 1 µM | > 1 µM | > 1 µM | > 10 µM | > 10 µM | > 10 µM | > 1 µM | 0.261 µM | > 10 µM | > 10 µM |  |  |
| CFPAC-1 (Pancreatic Carcinoma) | 1.44 µM | > 10 µM | > 10 µM | > 0.3 µM | 0.108 µM | > 2 µM | 0.0261 µM | > 10 µM | > 0.001 µM | > 10 µM | > 3 µM | > 1 µM | > 1 µM | > 1 µM | > 3 µM | > 10 µM | > 10 µM | > 1 µM | > 1 µM | > 1 µM | > 10 µM | > 10 µM | > 10 µM | > 1 µM | > 1 µM | > 10 µM | 5.77 µM |  |  |
| COR-L23 (Non-Small Cell Lung Carcinoma) | 0.591 µM | > 10 µM | > 10 µM | > 0.3 µM | 0.216 µM | > 2 µM | 0.131 µM | > 10 µM | > 0.001 µM | > 10 µM | > 3 µM | > 1 µM | > 1 µM | > 1 µM | > 3 µM | > 10 µM | > 10 µM | > 1 µM | > 1 µM | > 1 µM | > 10 µM | > 10 µM | > 10 µM | > 1 µM | > 1 µM | > 10 µM | 5.74 µM |  |  |
| CTV-1 (T-Lymphoblastic Leukemia) | 0.28 µM | 0.199 µM | 1.47 µM | > 0.3 µM | 0.00728 µM | < 0.002 µM | 0.00352 µM | > 10 µM | > 0.001 µM | 5.88 µM | > 3 µM | > 1 µM | > 1 µM | > 1 µM | > 3 µM | 0.371 µM | 3.92 µM | 0.0575 µM | 0.0456 µM | > 1 µM | > 10 µM | > 10 µM | 4.93 µM | > 1 µM | > 1 µM | > 10 µM | 3.17 µM |  |  |
| DMS-273 (Small Cell Lung Carcinoma) | 1.17 µM | 1.06 µM | > 10 µM | > 0.3 µM | 0.0324 µM | > 2 µM | 0.0189 µM | > 10 µM | > 0.001 µM | 0.916 µM | 1.48 µM | > 1 µM | > 1 µM | > 1 µM | > 3 µM | 3.93 µM | 3.45 µM | 0.117 µM | 0.458 µM | 0.114 µM | > 10 µM | > 10 µM | > 10 µM | > 1 µM | 0.201 µM | 7.43 µM | 5.58 µM |  |  |
| EM-2 (Chronic Myelogenous Leukemia) | 0.295 µM | 1.06 µM | > 10 µM | > 0.3 µM | 0.00551 µM | 0.00228 µM | 0.00512 µM | > 10 µM | > 0.001 µM | > 10 µM | > 3 µM | > 1 µM | 0.35 µM | > 1 µM | > 3 µM | 0.859 µM | 1.63 µM | 0.0616 µM | 0.104 µM | 0.0219 µM | 5.55 µM | > 10 µM | > 10 µM | 0.0342 µM | > 1 µM | > 10 µM | > 10 µM |  |  |
